# Data as given in patent publication US4401604A, “Process for preparing thiosulfenamide derivatives of N-phosphonomethylglycine triesters” (Monsanto Company, priority 1981, dated 1983).
# What was measured:
# Type in all cases: in vivo
# Morningglory [1] = test: Pre-emergent herbicidal activity; conditions: Table III; 11.2 kg/h; 2 WAT
# Excerpt: (§1) A good grade of top soil is placed in aluminum pans and compacted to a depth of 0.95 to 1.27 cm. from the top of each pan. A predetermined number of seeds or vegetative propagules of each of several plant species are placed on top of the soil in each pan and then pressed down. Herbicidal compositions prepared as in the previous example are applied by admixture with or incorporation in the top layer of soil.
# (§2) In this method, the soil required to cover the seeds and propagules is weighed and admixed with a herbicidal composition containing a known amount of the active ingredient (compound of this invention). The pans are then filled with the admixture and leveled. Watering is carried out by permitting the soil in the pans to absorb moisture through apertures in the pan bottoms. The seed and propagule containing pans are placed on a wet sand bench and maintained for approximately two weeks under ordinary conditions of sunlight and watering. At the end of this period, the number of emerged plants of each species is noted and compared to an untreated control.
# (§3) The pre-emergent herbicidal activity index used below is based upon average percent control of each species as follows:
# (§4) Plant species in the table are identified by the same code letters used in the previous example.
# Velvetleaf [2] = test: Pre-emergent herbicidal activity; conditions: Table III; 11.2 kg/h; 2 WAT
# Excerpt: as §1, §2, §3, §4
# Cocklebur [3] = test: Pre-emergent herbicidal activity; conditions: Table III; 11.2 kg/h; 2 WAT
# Excerpt: as §1, §2, §3, §4
# Yellow Nutsedge [4] = test: Pre-emergent herbicidal activity; conditions: Table III; 11.2 kg/h; 2 WAT
# Excerpt: as §1, §2, §3, §4
# Canada Thistle [5] = test: Pre-emergent herbicidal activity; conditions: Table III; 11.2 kg/h; 2 WAT
# Excerpt: as §1, §2, §3, §4
# Johnsongrass [6] = test: Pre-emergent herbicidal activity; conditions: Table III; 11.2 kg/h; 2 WAT
# Excerpt: as §1, §2, §3, §4
# Smartweed [7] = test: Pre-emergent herbicidal activity; conditions: Table III; 11.2 kg/h; 2 WAT
# Excerpt: as §1, §2, §3, §4
# Quackgrass [8] = test: Pre-emergent herbicidal activity; conditions: Table III; 11.2 kg/h; 2 WAT
# Excerpt: as §1, §2, §3, §4
# Downy Brome [9] = test: Pre-emergent herbicidal activity; conditions: Table III; 11.2 kg/h; 2 WAT
# Excerpt: as §1, §2, §3, §4
# Lambsquarters [10] = test: Pre-emergent herbicidal activity; conditions: Table III; 11.2 kg/h; 2 WAT
# Excerpt: as §1, §2, §3, §4
# Barnyardgrass [11] = test: Pre-emergent herbicidal activity; conditions: Table III; 11.2 kg/h; 2 WAT
# Excerpt: as §1, §2, §3, §4
# Morningglory [12] = test: Post-emergence herbicidal activity, greenhouse
# Summary of the method: (§5)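 Plants grown 2–3 weeks in greenhouse soil pans, then atomizer-sprayed with candidate in solvent/water spray containing ~0.4% emulsifier (butylamine dodecylbenzene sulfonate/tall oil ethoxylate) at stated application rates. Injury scored versus unsprayed controls at ~2 and 4 weeks after treatment, as an activity index.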
# Rice = test: Post-emergence herbicidal activity, greenhouse; conditions: Table II
# Summary of the method: as §5
# Velvetleaf [13] = test: Post-emergence herbicidal activity, greenhouse
# Summary of the method: as §5
# Soybean = test: Post-emergence herbicidal activity, greenhouse; conditions: Table II
# Summary of the method: as §5
# Cocklebur [14] = test: Post-emergence herbicidal activity, greenhouse
# Summary of the method: as §5
# Yellow Nutsedge [15] = test: Post-emergence herbicidal activity, greenhouse; conditions: Table I, 4 WAT
# Summary of the method: as §5
# Canada Thistle [16] = test: Post-emergence herbicidal activity, greenhouse; conditions: Table I, 4 WAT
# Summary of the method: as §5
# Hemp Sesbania = test: Post-emergence herbicidal activity, greenhouse; conditions: Table II
# Summary of the method: as §5
# Sugar Beet = test: Post-emergence herbicidal activity, greenhouse; conditions: Table II
# Summary of the method: as §5
# Johnsongrass [17] = test: Post-emergence herbicidal activity, greenhouse; conditions: Table I, 4 WAT
# Summary of the method: as §5
# Smartweed [18] = test: Post-emergence herbicidal activity, greenhouse
# Summary of the method: as §5
# Panicum Spp = test: Post-emergence herbicidal activity, greenhouse; conditions: Table II
# Summary of the method: as §5
# Wild Buckwheat = test: Post-emergence herbicidal activity, greenhouse; conditions: Table II
# Summary of the method: as §5
# Wheat = test: Post-emergence herbicidal activity, greenhouse; conditions: Table II
# Summary of the method: as §5
# Quackgrass [19] = test: Post-emergence herbicidal activity, greenhouse; conditions: Table I, 4 WAT
# Summary of the method: as §5
# Downy Brome [20] = test: Post-emergence herbicidal activity, greenhouse
# Summary of the method: as §5
# Lambsquarters [21] = test: Post-emergence herbicidal activity, greenhouse
# Summary of the method: as §5
# Barnyardgrass [22] = test: Post-emergence herbicidal activity, greenhouse
# Summary of the method: as §5
# Sorghum = test: Post-emergence herbicidal activity, greenhouse; conditions: Table II
# Summary of the method: as §5
# Crabgrass = test: Post-emergence herbicidal activity, greenhouse; conditions: Table II
# Summary of the method: as §5
structure (smiles),measurement,setting,value
COC(=O)CN(CP(=O)(Oc1ccccc1OC)Oc1ccccc1OC)SSc1cccc(C(F)(F)F)c1 [V],pre-emergent herbicidal activity index,Morningglory [1],1 (25-49% control)
same,pre-emergent herbicidal activity index,Velvetleaf [2],0 (0-24% control)
same,pre-emergent herbicidal activity index,Cocklebur [3],0 (0-24% control)
same,pre-emergent herbicidal activity index,Yellow Nutsedge [4],0 (0-24% control)
same,pre-emergent herbicidal activity index,Canada Thistle [5],2 (50-74% control)
same,pre-emergent herbicidal activity index,Johnsongrass [6],3 (75-100% control)
same,pre-emergent herbicidal activity index,Smartweed [7],1 (25-49% control)
same,pre-emergent herbicidal activity index,Quackgrass [8],1 (25-49% control)
same,pre-emergent herbicidal activity index,Downy Brome [9],2 (50-74% control)
same,pre-emergent herbicidal activity index,Lambsquarters [10],0 (0-24% control)
same,pre-emergent herbicidal activity index,Barnyardgrass [11],3 (75-100% control)
same,post-emergence herbicidal activity index,"Morningglory [12]; Table I, 5.6 kg/h, 4 WAT",1 (25-49% control)
same,post-emergence herbicidal activity index,"Morningglory [12]; Table I, 11.2 kg/h, 4 WAT",2 (50-74% control)
same,post-emergence herbicidal activity index,"Morningglory [12]; Table II, 0.28 kg/h, 2 WAT",0 (0- 24% control)
same,post-emergence herbicidal activity index,"Morningglory [12]; Table II, 1.12 kg/h, 4 WAT",1 (25-49% control)
same,post-emergence herbicidal activity index,"Morningglory [12]; Table II, 5.6 kg/h, 4 WAT",1 (25-49% control)
same,post-emergence herbicidal activity index,"Rice; 0.28 kg/h, 2 WAT",0 (0- 24% control)
same,post-emergence herbicidal activity index,"Rice; 1.12 kg/h, 4 WAT",0 (0- 24% control)
same,post-emergence herbicidal activity index,"Rice; 5.6 kg/h, 4 WAT",1 (25-49% control)
same,post-emergence herbicidal activity index,"Velvetleaf [13]; Table I, 5.6 kg/h, 4 WAT",1 (25-49% control)
same,post-emergence herbicidal activity index,"Velvetleaf [13]; Table I, 11.2 kg/h, 4 WAT",0 (0- 24% control)
same,post-emergence herbicidal activity index,"Velvetleaf [13]; Table II, 0.28 kg/h, 2 WAT",0 (0- 24% control)
same,post-emergence herbicidal activity index,"Velvetleaf [13]; Table II, 1.12 kg/h, 4 WAT",0 (0- 24% control)
same,post-emergence herbicidal activity index,"Velvetleaf [13]; Table II, 5.6 kg/h, 4 WAT",1 (25-49% control)
same,post-emergence herbicidal activity index,"Soybean; 0.28 kg/h, 2 WAT",0 (0- 24% control)
same,post-emergence herbicidal activity index,"Soybean; 1.12 kg/h, 4 WAT",0 (0- 24% control)
same,post-emergence herbicidal activity index,"Soybean; 5.6 kg/h, 4 WAT",1 (25-49% control)
same,post-emergence herbicidal activity index,"Cocklebur [14]; Table I, 5.6 kg/h, 4 WAT",2 (50-74% control)
same,post-emergence herbicidal activity index,"Cocklebur [14]; Table I, 11.2 kg/h, 4 WAT",3 (75-99% control)
same,post-emergence herbicidal activity index,"Cocklebur [14]; Table II, 0.28 kg/h, 2 WAT",0 (0- 24% control)
same,post-emergence herbicidal activity index,"Cocklebur [14]; Table II, 1.12 kg/h, 4 WAT",1 (25-49% control)
same,post-emergence herbicidal activity index,"Cocklebur [14]; Table II, 5.6 kg/h, 4 WAT",3 (75-99% control)
same,post-emergence herbicidal activity index,Yellow Nutsedge [15]; 5.6 kg/h,1 (25-49% control)
same,post-emergence herbicidal activity index,Yellow Nutsedge [15]; 11.2 kg/h,1 (25-49% control)
same,post-emergence herbicidal activity index,Canada Thistle [16]; 5.6 kg/h,0 (0- 24% control)
same,post-emergence herbicidal activity index,Canada Thistle [16]; 11.2 kg/h,1 (25-49% control)
same,post-emergence herbicidal activity index,"Hemp Sesbania; 0.28 kg/h, 2 WAT",0 (0- 24% control)
same,post-emergence herbicidal activity index,"Hemp Sesbania; 1.12 kg/h, 4 WAT",2 (50-74% control)
same,post-emergence herbicidal activity index,"Hemp Sesbania; 5.6 kg/h, 4 WAT",1 (25-49% control)
same,post-emergence herbicidal activity index,"Sugar Beet; 0.28 kg/h, 2 WAT",0 (0- 24% control)
same,post-emergence herbicidal activity index,"Sugar Beet; 1.12 kg/h, 4 WAT",2 (50-74% control)
same,post-emergence herbicidal activity index,"Sugar Beet; 5.6 kg/h, 4 WAT",2 (50-74% control)
same,post-emergence herbicidal activity index,Johnsongrass [17]; 5.6 kg/h,1 (25-49% control)
same,post-emergence herbicidal activity index,Johnsongrass [17]; 11.2 kg/h,2 (50-74% control)
same,post-emergence herbicidal activity index,"Smartweed [18]; Table I, 5.6 kg/h, 4 WAT",1 (25-49% control)
same,post-emergence herbicidal activity index,"Smartweed [18]; Table I, 11.2 kg/h, 4 WAT",2 (50-74% control)
same,post-emergence herbicidal activity index,"Smartweed [18]; Table II, 0.28 kg/h, 2 WAT",0 (0- 24% control)
same,post-emergence herbicidal activity index,"Smartweed [18]; Table II, 1.12 kg/h, 4 WAT",3 (75-99% control)
same,post-emergence herbicidal activity index,"Smartweed [18]; Table II, 5.6 kg/h, 4 WAT",2 (50-74% control)
same,post-emergence herbicidal activity index,"Panicum Spp; 0.28 kg/h, 2 WAT",0 (0- 24% control)
same,post-emergence herbicidal activity index,"Panicum Spp; 1.12 kg/h, 4 WAT",0 (0- 24% control)
same,post-emergence herbicidal activity index,"Panicum Spp; 5.6 kg/h, 4 WAT",1 (25-49% control)
same,post-emergence herbicidal activity index,"Wild Buckwheat; 0.28 kg/h, 2 WAT",0 (0- 24% control)
same,post-emergence herbicidal activity index,"Wild Buckwheat; 1.12 kg/h, 4 WAT",0 (0- 24% control)
same,post-emergence herbicidal activity index,"Wild Buckwheat; 5.6 kg/h, 4 WAT",0 (0- 24% control)
same,post-emergence herbicidal activity index,"Wheat; 0.28 kg/h, 2 WAT",0 (0- 24% control)
same,post-emergence herbicidal activity index,"Wheat; 1.12 kg/h, 4 WAT",1 (25-49% control)
same,post-emergence herbicidal activity index,"Wheat; 5.6 kg/h, 4 WAT",3 (75-99% control)
same,post-emergence herbicidal activity index,Quackgrass [19]; 5.6 kg/h,1 (25-49% control)
same,post-emergence herbicidal activity index,Quackgrass [19]; 11.2 kg/h,4 (100% control)
same,post-emergence herbicidal activity index,"Downy Brome [20]; Table I, 5.6 kg/h, 4 WAT",1 (25-49% control)
same,post-emergence herbicidal activity index,"Downy Brome [20]; Table I, 11.2 kg/h, 4 WAT",1 (25-49% control)
same,post-emergence herbicidal activity index,"Downy Brome [20]; Table II, 0.28 kg/h, 2 WAT",0 (0- 24% control)
same,post-emergence herbicidal activity index,"Downy Brome [20]; Table II, 1.12 kg/h, 4 WAT",0 (0- 24% control)
same,post-emergence herbicidal activity index,"Downy Brome [20]; Table II, 5.6 kg/h, 4 WAT",0 (0- 24% control)
same,post-emergence herbicidal activity index,"Lambsquarters [21]; Table I, 5.6 kg/h, 4 WAT",3 (75-99% control)
same,post-emergence herbicidal activity index,"Lambsquarters [21]; Table I, 11.2 kg/h, 4 WAT",3 (75-99% control)
same,post-emergence herbicidal activity index,"Lambsquarters [21]; Table II, 0.28 kg/h, 2 WAT",0 (0- 24% control)
same,post-emergence herbicidal activity index,"Lambsquarters [21]; Table II, 1.12 kg/h, 4 WAT",3 (75-99% control)
same,post-emergence herbicidal activity index,"Lambsquarters [21]; Table II, 5.6 kg/h, 4 WAT",3 (75-99% control)
same,post-emergence herbicidal activity index,"Barnyardgrass [22]; Table I, 5.6 kg/h, 4 WAT",3 (75-99% control)
same,post-emergence herbicidal activity index,"Barnyardgrass [22]; Table I, 11.2 kg/h, 4 WAT",3 (75-99% control)
same,post-emergence herbicidal activity index,"Barnyardgrass [22]; Table II, 0.28 kg/h, 2 WAT",0 (0- 24% control)
same,post-emergence herbicidal activity index,"Barnyardgrass [22]; Table II, 1.12 kg/h, 4 WAT",0 (0- 24% control)
same,post-emergence herbicidal activity index,"Barnyardgrass [22]; Table II, 5.6 kg/h, 4 WAT",3 (75-99% control)
same,post-emergence herbicidal activity index,"Sorghum; 0.28 kg/h, 2 WAT",0 (0- 24% control)
same,post-emergence herbicidal activity index,"Sorghum; 1.12 kg/h, 4 WAT",0 (0- 24% control)
same,post-emergence herbicidal activity index,"Sorghum; 5.6 kg/h, 4 WAT",0 (0- 24% control)
same,post-emergence herbicidal activity index,"Crabgrass; 0.28 kg/h, 2 WAT",0 (0- 24% control)
same,post-emergence herbicidal activity index,"Crabgrass; 1.12 kg/h, 4 WAT",2 (50-74% control)
same,post-emergence herbicidal activity index,"Crabgrass; 5.6 kg/h, 4 WAT",3 (75-99% control)
